According to patent publication EP0484785B1, “Use of xanthines for the preparation of a medicament effective for inhibiting the replication of human retroviruses” (HOECHST-ROUSSEL PHARMACEUTICALS INCORPORATED, priority 1990, dated 1992):
Like-named read-outs stand apart in the source and are kept apart here.

Columns and labels:
HIV-1 [1] = assay: HIV-1 replication in acutely infected peripheral blood mononuclear cells, reverse transcriptase activity in cell-free supernatants; format: cell-based; details: for Reverse Transcriptase (% control): PBM, 4 h pretreatment, 7 days
Procedure: (§1) Human peripheral blood mononuclear cells (PBM) were obtained by Ficoll-Hypaque gradient centrifugation of blood donated by normal HIV-1 sero-negative individuals. PBM were cultured in RPMI-1640 supplemented with 20% fetal calf serum, penicillin, streptomycin and L-glutamine. After stimulating cells overnight with 15 µg/ml of concanavalin A, they were maintained in 10 units/ml interleukin-2 (IL-2) for the duration of the assay. To test for the inhibition of HIV-1 replication in PBM by pentoxifylline, PBM were pretreated with various concentrations of pentoxifylline for 4 hours after which HIV-1 (10⁴ cpm units of RT activity) was added to the cultures. The cells remained in the appropriate concentrations of the drug for a total of 7 days at which point the RT activity was measured in cell-free supernatants. In parallel, the cytotoxicity was analyzed by trypan blue staining of uninfected PBM treated for 7 days with various concentrations of pentoxifylline. The results are expressed as percent of untreated controls.

HIV-1 [2] = assay: HIV-1 replication in acutely infected Jurkat cells, reverse transcriptase activity in cell-free supernatants; format: cell-based; details: for Reverse Transcriptase (% control): Jurkat cells, 4 h pretreatment, 7 days
Procedure: (§2) Human Jurkat cells (a CD4⁺ T-cell lymphoma line) were grown in RPMI-1640 supplemented with 10% fetal calf serum, penicillin, streptomycin and L-glutamine. HIV-1 was produced in Jurkat cells. During the log phase of growth, cell-free supernatant was harvested, tested for RT activity (according to the method of Dayton et al., Cell 1986, 44:941-947) and frozen in aliquots at -70°C until use. Jurkat cells were pretreated with pentoxifylline at various concentrations for 4 hours after which HIV-1 (10⁴ cpm units of RT activity) was added to the cultures. The cells remained in the appropriate concentration of pentoxifylline for a total of 7 days, at which point the RT activity was measured in cell-free supernatants. In parallel, cell viability was tested by trypan blue staining of uninfected Jurkat cells treated for 7 days with various concentrations of pentoxifylline. The results are expressed as a percent of control.

Jurkat cells = format: cell-based; details: human, 7 days
Procedure: as §2

HIV-1 LTR = assay: HIV-1 LTR-mediated gene expression, CAT activity in U38 cells; format: cell-based, human; design: CAT activity: unit not given here; details: for CAT activity: 2 days
Procedure: Down-regulation of gene expression mediated by the HIV-1 LTR: U38 cells (Felber BK, Pavlakis GN. Science 1988, 239:184-187) were cultured in the presence or absence of 10 ng/ml phorbol-12-myristate-13-acetate (PMA). U38 cells were derived from the monocytoid human cell line U937 and contain integrated copies of the HIV-1 LTR ligated to the chloramphenicol acetyl transferase (CAT) gene. These cells have been kindly provided by Dr. Barbara Felber (National Cancer Institute, Frederick, Maryland, USA). Two hours later, the cells were washed once in phosphate-buffered saline (PBS) and cultured in the presence of various concentrations of pentoxifylline. After 2 days, cell viability was tested by trypan blue staining, and the activity of CAT was measured as described previously (Sodroski, J. et al., Science 1985, 227:171-173) after standardizing the cell extracts for protein content.

[3] = system: peripheral blood mononuclear cells (PBM); format: cell-based; details: human, 7 days
Procedure: as §1

CC(=O)CCCCn1c(=O)c2c(ncn2C)n(C)c1=O [Pentoxifylline, pentoxifylline]
Reverse Transcriptase (% control) (HIV-1 [1]; pentoxifylline 25 micromolar): 75.5 % control
Reverse Transcriptase (% control) (HIV-1 [1]; pentoxifylline 50 micromolar): 72.9 % control
Reverse Transcriptase (% control) (HIV-1 [1]; pentoxifylline 250 micromolar): 30.0 % control
Reverse Transcriptase (% control) (HIV-1 [1]; pentoxifylline 500 micromolar): 22.7 % control
Reverse Transcriptase (% control) (HIV-1 [1]; pentoxifylline 1000 micromolar): 18.6 % control
HIV-1 replication as measured by reverse transcriptase activity (HIV-1 [1]; peripheral blood mononuclear cells acutely infected with HIV-1): decreased
HIV-1 replication as measured by reverse transcriptase activity (HIV-1 [2]; Jurkat cells acutely infected with HIV): decreased
Reverse Transcriptase (% control) (HIV-1 [2]; pentoxifylline 50 micromolar): 84.6 % control
Reverse Transcriptase (% control) (HIV-1 [2]; pentoxifylline 100 micromolar): 72.9 % control
Reverse Transcriptase (% control) (HIV-1 [2]; pentoxifylline 500 micromolar): 69.5 % control
Reverse Transcriptase (% control) (HIV-1 [2]; pentoxifylline 1000 micromolar): 55.0 % control
Cell viability (Jurkat cells): > 95%
CAT activity (HIV-1 LTR; Phorbol ester-non-stimulated, pentoxifylline 50 micromolar): 4.91
CAT activity (HIV-1 LTR; Phorbol ester-non-stimulated, pentoxifylline 100 micromolar): 3.75
CAT activity (HIV-1 LTR; Phorbol ester-non-stimulated, pentoxifylline 500 micromolar): 2.95
CAT activity (HIV-1 LTR; Phorbol ester-non-stimulated, pentoxifylline 1000 micromolar): 2.81
CAT activity (HIV-1 LTR; Phorbol ester-stimulated (10 ng/ml PMA), pentoxifylline 50 micromolar): 50.4
CAT activity (HIV-1 LTR; Phorbol ester-stimulated (10 ng/ml PMA), pentoxifylline 100 micromolar): 23.9
CAT activity (HIV-1 LTR; Phorbol ester-stimulated (10 ng/ml PMA), pentoxifylline 500 micromolar): 20.3
CAT activity (HIV-1 LTR; Phorbol ester-stimulated (10 ng/ml PMA), pentoxifylline 1000 micromolar): 19.5
chloramphenicol transacetylase activity (CAT) (HIV-1 LTR; U38 cells, whether or not first pretreated with phorbol ester): decreased
Viability (% control) ([3]; 50 micromolar): 93.5 % control
Viability (% control) ([3]; 500 micromolar): 84.8 % control
Viability (% control) ([3]; 1000 micromolar): 50.0 % control
